# Results published in ChEMBL document CHEMBL5728840, “Vasopressin receptor antagonists and products and methods related thereto” (2021).
# pIC50: −log10 of the molar value.
# Target: Vasopressin V1a receptor (Homo sapiens, UniProt P37288)
# Test: Vasopressin V1A Receptor Antagonist Assay: The purpose of this assay was to determine the inhibitory effect of synthesized compounds on the Vasopressin V1a receptor. The assay as performed in Chinese Hamster Ovary (CHO) cells expressing the human Arginine Vasopressin Receptor 1a (AVPR1a). Arginine Vasopressin (AVP) evokes an increase in intracellular calcium in CHO-AVPR1a cells which is measured in a fluorescence assay on the […] using calcium sensitive dyes. Test compounds were assessed for their ability to affect the magnitude of the response to AVP, with antagonists showing a concentration-dependent reduction in the AVP-mediated fluorescence. Compounds were tested in duplicate in a 10-point, 1:3 dilution series starting at a nominal concentration of 3 μM in the assay.CHO-AVPR1a cells were maintained in routine culture in T175 Flasks at 37° C., 5% CO2. The growth medium consists of Ham's F12 media supplemented with 10% v/v fetal bovine serum, 1× non-essential amino acids, and 0.4 mg/ml Geneticin G418.
# Type: cell-based
# Vasopressin V1a receptor, sequence (P37288 whole entry): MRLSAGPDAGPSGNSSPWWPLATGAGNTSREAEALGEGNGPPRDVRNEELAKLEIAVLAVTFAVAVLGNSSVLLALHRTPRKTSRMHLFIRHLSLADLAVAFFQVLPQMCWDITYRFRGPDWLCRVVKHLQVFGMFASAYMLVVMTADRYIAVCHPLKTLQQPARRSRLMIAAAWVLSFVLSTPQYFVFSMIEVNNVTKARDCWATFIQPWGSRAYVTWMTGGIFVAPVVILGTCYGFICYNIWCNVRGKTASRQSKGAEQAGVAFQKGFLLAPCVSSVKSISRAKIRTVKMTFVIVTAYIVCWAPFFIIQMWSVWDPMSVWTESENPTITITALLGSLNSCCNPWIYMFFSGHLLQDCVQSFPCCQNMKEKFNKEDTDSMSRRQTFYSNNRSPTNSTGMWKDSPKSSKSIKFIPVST
row,Compound,pIC50
1,CN(C)C(=O)N1Cc2cc(Cl)ccc2-n2c(nnc2C2CC3(C2)CN(c2ccc(F)cn2)C3)C1,> 7.00
2,O=C(C1CC1)N1CC2(CC(c3nnc4n3-c3ccc(Cl)cc3CN(C3CC3)C4)C2)C1,> 7.00
